Data taken from patent US7462600B2, “Macrolides” (Pfizer Inc, priority 2004, dated 2008).
In brackets after ≈: the same amount, converted by molar mass. Where two headings read alike, the source gives them in different places.

Assays:
Type in all cases: cell-based
[1] = system: Streptococcus pyogenes 1079; test: MIC, microtiter broth dilution (NCCLS M100-S14), S. pyogenes 1079 (ermB)
How it was run: (§1)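 Broth dilution was run in microtiter trays and read per NCCLS M100-S14 to give MICs. Compounds came from 40 mg/ml DMSO stock solutions. The strain panel paired macrolide-susceptible parents with macrolide-resistant derivatives.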

[2] = system: Streptococcus pneumoniae 1016; test: MIC, microtiter broth dilution (NCCLS M100-S14), S. pneumoniae 1016 (susceptible)
How it was run: as §1

[3] = system: Streptococcus pneumoniae 1095; details: microtiter broth dilution
How it was run: as §1

[4] = system: Streptococcus pneumoniae 1175; details: microtiter broth dilution
How it was run: as §1

[5] = system: Haemophilus influenzae 1218; test: MIC, microtiter broth dilution (NCCLS M100-S14), H. influenzae 1218 (susceptible)
How it was run: as §1

[6] = S. pneumoniae 1016 (susceptible)
[7] = H. influenzae 1218 (susceptible)

SMILES | MIC S. pyogenes 1079 ([1]; Streptococcus pyogenes 1079) [µg/mL] | MIC S. pneumo. 1016 ([2]; Streptococcus pneumoniae 1016) [µg/mL] | MIC S. pneumo. 1095 ([3]; Streptococcus pneumoniae 1095) [µg/mL] | MIC S. pneumo. 1175 ([4]; Streptococcus pneumoniae 1175) [µg/mL] | MIC H. influenzae 1218 ([5]; Haemophilus influenzae 1218) [µg/mL] | MIC S. pyogenes 1079 ([1]; S. pyogenes 1079 (ermB)) [µg/mL] | MIC S. pneumo. 1016 [2, 6] [µg/mL] | MIC S. pneumo. 1095 ([3]; S. pneumoniae 1095 (ermB)) [µg/mL] | MIC S. pneumo. 1175 ([4]; S. pneumoniae 1175 (mefA)) [µg/mL] | MIC H. influenzae 1218 [5, 7] [µg/mL]
CCC1OC(=O)C(C)C(=O)C(C)C(OC2OC(C)CC(N(C)C)C2O)C(C)(OC)CC(C)C(=O)C(C)C2N(C3CN(S(=O)(=O)c4ccccc4C#N)C3)C(=O)OC12C (stereo not drawn) [Example 3.18, 3-descladinosyl-11,12-dideoxy-6-O-methyl-3-oxo-12,11-(oxycarbonyl-(1-(2-cyanobenzenesulfonyl)-azetidin-3-yl)-imino)-erythromycin A] | 2 (≈ 2.4 µM) | <0.06 | 1 (≈ 1.2 µM) | <0.06 | 0.12 (≈ 0.144 µM) | – | – | – | – | –
CCC1OC(=O)C(C)C(=O)C(C)C(OC2OC(C)CC(N(C)C)C2O)C(C)(OC)CC(C)C(=O)C(C)C2N(C3CN(Cc4cn[nH]c4)C3)C(=O)OC12C (stereo not drawn) [Example 1.19, (1H-pyrazol-4-yl)methyl] | >64.00 | <0.06 | 0.12 (≈ 0.16 µM) | 4 (≈ 5.35 µM) | 0.5 (≈ 0.669 µM) | – | – | – | – | –
CC[C@H]1OC(=O)[C@H](C)C(=O)[C@H](C)[C@@H](O[C@@H]2O[C@H](C)C[C@H](N(C)C)[C@H]2O)[C@](C)(OC)C[C@@H](C)C(=O)[C@H](C)[C@H]2N(CC3(O)CN(C(=O)c4ccc5cccnc5c4)C3)C(=O)O[C@]12C [7.21] | – | – | – | – | – | >64.00 | <0.06 | 0.5 (≈ 0.586 µM) | 1 (≈ 1.17 µM) | 2 (≈ 2.34 µM)
CCC1OC(=O)C(C)C(=O)C(C)C(OC2OC(C)CC(N(C)C)C2O)C(C)(OC)CC(C)C(=O)C(C)C2N(CC3CCCN3C(=O)c3cc4cccnc4nc3C)C(=O)OC12C (stereo not drawn) [10.39] | – | – | – | – | – | >64.00 | <0.06 | <0.06 | 0.5 (≈ 0.577 µM) | 2 (≈ 2.31 µM)
CCC1OC(=O)C(C)C(=O)C(C)C(OC2OC(C)CC(N(C)C)C2O)C(C)(OC)CC(C)C(=O)C(C)C2N(CC3CCCN3C(=O)c3cc4ccccn4n3)C(=O)OC12C [Example 10.14, 3-descladinosyl-11,12-dideoxy-6-O-methyl-3-oxo-12,11-(oxycarbonyl-((1-(pyrazolo[1,5-a]pyridine-2-carbonyl)-(R)-pyrrolidin-2-yl)-methyl)-imino)-erythromycin A] | – | – | – | – | – | 32 (≈ 38.1 µM) | <0.06 | <0.06 | 0.12 (≈ 0.143 µM) | 0.25 (≈ 0.298 µM)
CCC1OC(=O)C(C)C(=O)C(C)C(OC2OC(C)CC(N(C)C)C2O)C(C)(OC)CC(C)C(=O)C(C)C2N(CC3CN(Cc4cccc5cccnc45)C3)C(=O)OC12C.O=CO (stereo not drawn) [4.36] | >64.00 | <0.06 | 0.25 | <0.06 | <0.06 | – | – | – | – | –
CCC1OC(=O)C(C)C(=O)C(C)C(OC2OC(C)CC(N(C)C)C2O)C(C)(OC)CC(C)C(=O)C(C)C2N(C3CN(Cc4c(OC)cnc5ncccc45)C3)C(=O)OC12C (stereo not drawn) [Example 1.72, 3-descladinosyl-11,12-dideoxy-6-O-methyl-3-oxo-12,11-(oxycarbonyl-(1-(3-methoxy-1,8-naphthyridine-4-methyl)-azetidin-3-yl)-imino)-erythromycin A] | <0.063 | <0.063 | <0.063 | <0.063 | 1 (≈ 1.19 µM) | – | – | – | – | –
CCC1OC(=O)C(C)C(=O)C(C)C(OC2OC(C)CC(N(C)C)C2O)C(C)(OC)CC(C)C(=O)C(C)C2N(C3CN(S(=O)(=O)c4c(C)n[nH]c4C)C3)C(=O)OC12C (stereo not drawn) [Example 3.29, 3-descladinosyl-11,12-dideoxy-6-O-methyl-3-oxo-12,11-(oxycarbonyl-(1-(3,5-dimethyl-1H-pyrazole-4-sulfony)-azetidin-3-yl)-imino)-erythromycin A] | 8 (≈ 9.68 µM) | <0.06 | <0.06 | 0.5 (≈ 0.605 µM) | 0.25 (≈ 0.303 µM) | – | – | – | – | –
CCC1OC(=O)C(C)C(=O)C(C)C(OC2OC(C)CC(N(C)C)C2O)C(C)(OC)CC(C)C(=O)C(C)C2N(CC3CCCN3Cc3c[nH]nn3)C(=O)OC12C (stereo not drawn) [10.02] | – | – | – | – | – | >64.00 | <0.06 | 0.25 (≈ 0.322 µM) | 2 (≈ 2.57 µM) | 1 (≈ 1.29 µM)
